The results in this text go back to US20070142266A1, “Combination comprising a P-gp inhibitor and an anti-epileptic drug” (priority 2001, published 2007).

The subject of series [1] is P-glycoprotein (P-gp). Put plainly: In vivo microdialysis in adult female Wistar rats: effect of local P-gp inhibitor perfusion on ECF levels of phenytoin in cerebral cortex. More on the design: species or system rat. Here is the method:
(§1) In vivo microdialysis in Adult Female Wistar Rats
(§2) The combination of phenytoin (Aldrich, Steinheim, Germany) and a P-gp inhibitor, e.g. PSC833) is given via the microdialysis probe in the right frontal cortex, while a probe in the left cortex served as a vehicle control site. Perfusion with the P-gp inhibitor started 15 to 60 minutes prior to i.p. administration of 50 mg/kg phenytoin. • Animals: Adult female Wistar rats (Harlan-Winkelmann, Germany) kept under controlled environmental conditions are used in the study. • Implantation of guide cannulae: Guide cannulae (CMA/12 polyurethane, Camegie Medicine, Sweden) are implanted into the left and right frontal (motor) cortex under anesthesia. The tips of the guide are positioned at rostral +3.2, lateral +3.2 or 3.2 and ventral 2.0 mm to bregma, coordinates according to Paxinos and Watson, The rat brain in stereotaxic coordinates, Sydney, Academic Press, 1986. • Microdialysis procedure: Microdialysis experiments are performed following a recovery period of at least 3 days after surgery. The microdialysis probe is lowered through the guide cannula to a depth of 5.0 mm according to bregma. 14 to 16 h after insertion, perfusion of the probe is started using Ringer solution (in mM 147 Na^+, 2.3 Ca^2+, 4.0 K^+and 155.6 Cr, pH 6.0). […]

A short description of series [2]: In vivo microdialysis in adult female Wistar rats: extracellular (ECF) phenytoin levels in cerebral cortex in the absence of a P-gp inhibitor. The following applies: rat, cerebral cortex extracellular fluid (microdialysate), ip, 50 mg/kg phenytoin i.p., after maximum levels reached, read-out: average half-life of decrease of ECF concentrations of phenytoin (converted). Here is the method:
as §1, §2

SMILES strings stand for the structures.

Consider `C/C=C/C[C@@H](C)C(=O)[C@H]1C(=O)N[C@@H](C(C)C)C(=O)N(C)CC(=O)N(C)[C@@H](CC(C)C)C(=O)N[C@@H](C(C)C)C(=O)N(C)[C@@H](CC(C)C)C(=O)N[C@@H](C)C(=O)N[C@H](C)C(=O)N(C)[C@@H](CC(C)C)C(=O)N(C)[C@@H](CC(C)C)C(=O)N(C)[C@@H](C(C)C)C(=O)N1C` [PSC833, [3′-desoxy-3′-oxo-MeBmt]^1-[Val]^2-Ciclosporin A], for which the “increase of ECF levels of phenytoin above control (ECF plasma ratio of treated site vs vehicle treated controls)” value in series [1] (2 mM PSC833 via microdialysis probe, phenytoin 50 mg/kg i.p., ECF plasma ratio comparison) is “about 150%”. The “maximum increase of ECF levels of phenytoin compared to untreated site” value in series [1] (2 mM PSC833 via right microdialysis probe started 15 min before phenytoin 50 mg/kg i.p., left cortex vehicle site) is 70±20%.

As to `O=C1NC(=O)C(c2ccccc2)(c2ccccc2)N1` [phenytoin, 5,5-diphenyl-2,4-imidazolidinedione], the half-life in series [2] was around 4 h.
